Measurements taken from the NIST ThermoML archive (doi:10.1021/je0497496).
Where “and” joins values, the source holds several entries; their conditions need not be identical. Equal entries are not always repeated. ± gives the expanded uncertainty stated by the source.

Conditions: for vapor or sublimation pressure: Closed cell (Static) method; for mass density: buoyancy

FCC(F)(F)F [1,1,1,2-tetrafluoroethane]
vapor or sublimation pressure (253.13 K, Liquid): 133.58 ± 1.1 kPa and 133.6 ± 1.1 kPa | mass density (253.13 K, Liquid): 1358.69 ± 0.4 kg/m3 and 1358.7 ± 0.4 kg/m3 | mass density (262.98 K, 30.04 kPa, Fluid (supercritical or subcritical phases)): 1.41703 ± 0.052 kg/m3 | mass density (262.99 K, 30.02 kPa, Fluid (supercritical or subcritical phases)): 1.41553 ± 0.052 kg/m3 and 1.41816 ± 0.052 kg/m3 | mass density (262.99 K, 50.03 kPa, Fluid (supercritical or subcritical phases)): 2.37378 ± 0.052 kg/m3 | mass density (262.99 K, 80.08 kPa, Fluid (supercritical or subcritical phases)): 3.83561 ± 0.053 kg/m3 | mass density (262.99 K, 100.09 kPa, Fluid (supercritical or subcritical phases)): 4.82696 ± 0.055 kg/m3 | mass density (262.99 K, 150.06 kPa, Fluid (supercritical or subcritical phases)): 7.37304 ± 0.055 kg/m3 | vapor or sublimation pressure (262.99 K, Liquid): 200.47 ± 1.1 kPa | mass density (262.99 K, Liquid): 1327.33 ± 0.4 kg/m3 | vapor or sublimation pressure (263 K, Liquid): 200.48 ± 1.1 kPa | mass density (263 K, Liquid): 1327.31 ± 0.4 kg/m3 | mass density (273.31 K, 50 kPa, Fluid (supercritical or subcritical phases)): 2.27757 ± 0.051 kg/m3 and 2.2813 ± 0.051 kg/m3 | mass density (273.31 K, 100.01 kPa, Fluid (supercritical or subcritical phases)): 4.6218 ± 0.052 kg/m3 | mass density (273.31 K, 150.01 kPa, Fluid (supercritical or subcritical phases)): 7.03559 ± 0.053 kg/m3 | mass density (273.31 K, 200 kPa, Fluid (supercritical or subcritical phases)): 9.53172 ± 0.055 kg/m3 | vapor or sublimation pressure (273.31 K, Liquid): 295.5 ± 1.2 kPa | mass density (273.31 K, Liquid): 1293.96 ± 0.39 kg/m3 | mass density (273.32 K, 250 kPa, Fluid (supercritical or subcritical phases)): 12.1179 ± 0.056 kg/m3 | mass density (283.16 K, 100.09 kPa, Fluid (supercritical or subcritical phases)): 4.4428 ± 0.051 kg/m3 | mass density (283.16 K, 200.02 kPa, Fluid (supercritical or subcritical phases)): 9.12611 ± 0.052 kg/m3 | mass density (283.16 K, 300.08 kPa, Fluid (supercritical or subcritical phases)): 14.1052 ± 0.054 kg/m3 | vapor or sublimation pressure (283.16 K, Liquid): 415.71 ± 1.3 kPa | mass density (283.16 K, Liquid): 1260.66 ± 0.38 kg/m3 | mass density (283.17 K, 100.1 kPa, Fluid (supercritical or subcritical phases)): 4.44579 ± 0.051 kg/m3 | mass density (283.17 K, 350.92 kPa, Fluid (supercritical or subcritical phases)): 16.7525 ± 0.056 kg/m3 | vapor or sublimation pressure (283.17 K, Liquid): 415.71 ± 1.3 kPa | mass density (283.17 K, Liquid): 1260.67 ± 0.38 kg/m3 | mass density (293.21 K, 399.98 kPa, Fluid (supercritical or subcritical phases)): 18.4354 ± 0.056 kg/m3 | mass density (293.21 K, 500.02 kPa, Fluid (supercritical or subcritical phases)): 23.7422 ± 0.057 kg/m3 | mass density (293.22 K, 100.05 kPa, Fluid (supercritical or subcritical phases)): 4.27783 ± 0.049 kg/m3 and 4.27519 ± 0.049 kg/m3 | mass density (293.22 K, 200.05 kPa, Fluid (supercritical or subcritical phases)): 8.76202 ± 0.05 kg/m3 and 8.75976 ± 0.05 kg/m3 | mass density (293.22 K, 300.02 kPa, Fluid (supercritical or subcritical phases)): 13.4608 ± 0.052 kg/m3 | vapor or sublimation pressure (293.22 K, Liquid): 571.94 ± 1.5 kPa and 571.98 ± 1.5 kPa | mass density (293.22 K, Liquid): 1225.34 ± 0.38 kg/m3 and 1225.33 ± 0.38 kg/m3 | mass density (303.25 K, 100.02 kPa, Fluid (supercritical or subcritical phases)): 4.1211 ± 0.048 kg/m3 and 4.12406 ± 0.048 kg/m3 | vapor or sublimation pressure (303.25 K, Liquid): 771.67 ± 1.7 kPa | mass density (303.25 K, Liquid): 1187.23 ± 0.37 kg/m3 | mass density (303.26 K, 299.99 kPa, Fluid (supercritical or subcritical phases)): 12.8979 ± 0.05 kg/m3 | mass density (303.26 K, 499.91 kPa, Fluid (supercritical or subcritical phases)): 22.542 ± 0.056 kg/m3 | mass density (303.26 K, 711.4 kPa, Fluid (supercritical or subcritical phases)): 34.0053 ± 0.059 kg/m3 | vapor or sublimation pressure (303.26 K, Liquid): 771.76 ± 1.7 kPa | mass density (303.26 K, Liquid): 1187.22 ± 0.37 kg/m3 | mass density (313.17 K, 100.02 kPa, Fluid (supercritical or subcritical phases)): 3.98495 ± 0.046 kg/m3 and 3.98345 ± 0.046 kg/m3 | mass density (313.17 K, 200.04 kPa, Fluid (supercritical or subcritical phases)): 8.11408 ± 0.048 kg/m3 | mass density (313.17 K, 600.21 kPa, Fluid (supercritical or subcritical phases)): 26.4214 ± 0.055 kg/m3 | mass density (313.17 K, 902.11 kPa, Fluid (supercritical or subcritical phases)): 42.8957 ± 0.062 kg/m3 | mass density (313.18 K, 400.01 kPa, Fluid (supercritical or subcritical phases)): 16.8674 ± 0.05 kg/m3 | mass density (313.18 K, 800.41 kPa, Fluid (supercritical or subcritical phases)): 37.0004 ± 0.059 kg/m3 | vapor or sublimation pressure (313.18 K, Liquid): 1018.1 ± 2.1 kPa | mass density (313.18 K, Liquid): 1146.44 ± 0.37 kg/m3 | mass density (323.19 K, 100.02 kPa, Fluid (supercritical or subcritical phases)): 3.85767 ± 0.045 kg/m3 and 3.85694 ± 0.045 kg/m3 | mass density (323.19 K, 500 kPa, Fluid (supercritical or subcritical phases)): 20.6111 ± 0.051 kg/m3 | mass density (323.19 K, 940.01 kPa, Fluid (supercritical or subcritical phases)): 42.4962 ± 0.064 kg/m3 | mass density (323.19 K, 1271.1 kPa, Fluid (supercritical or subcritical phases)): 62.9174 ± 0.068 kg/m3 | vapor or sublimation pressure (323.19 K, Liquid): 1319.8 ± 2.5 kPa | mass density (323.19 K, Liquid): 1102.35 ± 0.36 kg/m3 | mass density (323.2 K, 300 kPa, Fluid (supercritical or subcritical phases)): 11.9392 ± 0.047 kg/m3 | mass density (323.2 K, 802.37 kPa, Fluid (supercritical or subcritical phases)): 35.149 ± 0.054 kg/m3 | vapor or sublimation pressure (323.2 K, Liquid): 1319.9 ± 2.5 kPa | mass density (323.2 K, Liquid): 1102.34 ± 0.36 kg/m3 | mass density (333.16 K, 101.53 kPa, Fluid (supercritical or subcritical phases)): 3.7964 ± 0.044 kg/m3 | mass density (333.16 K, 303.79 kPa, Fluid (supercritical or subcritical phases)): 11.6786 ± 0.045 kg/m3 | mass density (333.16 K, 1500 kPa, Fluid (supercritical or subcritical phases)): 73.4336 ± 0.072 kg/m3 | vapor or sublimation pressure (333.16 K, Liquid): 1683 ± 3.1 kPa | mass density (333.16 K, Liquid): 1052.61 ± 0.37 kg/m3 | mass density (333.17 K, 101.53 kPa, Fluid (supercritical or subcritical phases)): 3.79264 ± 0.044 kg/m3 | mass density (333.17 K, 502.7 kPa, Fluid (supercritical or subcritical phases)): 19.9182 ± 0.049 kg/m3 | mass density (333.17 K, 801.13 kPa, Fluid (supercritical or subcritical phases)): 33.4094 ± 0.052 kg/m3 | mass density (333.17 K, 1009.4 kPa, Fluid (supercritical or subcritical phases)): 43.8443 ± 0.059 kg/m3 | mass density (333.17 K, 1300.4 kPa, Fluid (supercritical or subcritical phases)): 60.3214 ± 0.066 kg/m3 | vapor or sublimation pressure (333.17 K, Liquid): 1683.2 ± 3.1 kPa | mass density (333.17 K, Liquid): 1052.6 ± 0.37 kg/m3 | mass density (343.03 K, 136.28 kPa, Fluid (supercritical or subcritical phases)): 4.96602 ± 0.043 kg/m3 | mass density (343.03 K, 1500 kPa, Fluid (supercritical or subcritical phases)): 68.2379 ± 0.068 kg/m3 | mass density (343.03 K, 1704.5 kPa, Fluid (supercritical or subcritical phases)): 81.5238 ± 0.075 kg/m3 | vapor or sublimation pressure (343.03 K, Liquid): 2110.6 ± 3.8 kPa | mass density (343.03 K, Liquid): 997.103 ± 0.38 kg/m3 | mass density (343.04 K, 136.71 kPa, Fluid (supercritical or subcritical phases)): 4.97127 ± 0.043 kg/m3 | mass density (343.04 K, 303.78 kPa, Fluid (supercritical or subcritical phases)): 11.2865 ± 0.044 kg/m3 | mass density (343.04 K, 520.7 kPa, Fluid (supercritical or subcritical phases)): 19.9261 ± 0.047 kg/m3 | mass density (343.04 K, 849.11 kPa, Fluid (supercritical or subcritical phases)): 34.1538 ± 0.05 kg/m3 | mass density (343.04 K, 1093.8 kPa, Fluid (supercritical or subcritical phases)): 45.8644 ± 0.055 kg/m3 | mass density (343.04 K, 1300.4 kPa, Fluid (supercritical or subcritical phases)): 56.7069 ± 0.061 kg/m3 | mass density (343.04 K, 1900.2 kPa, Fluid (supercritical or subcritical phases)): 96.118 ± 0.087 kg/m3 | vapor or sublimation pressure (343.04 K, Liquid): 2110.9 ± 3.8 kPa | mass density (343.04 K, Liquid): 997.091 ± 0.38 kg/m3 | mass density (353.16 K, 136.72 kPa, Fluid (supercritical or subcritical phases)): 4.81465 ± 0.043 kg/m3 | mass density (353.16 K, 500.97 kPa, Fluid (supercritical or subcritical phases)): 18.447 ± 0.045 kg/m3 | mass density (353.16 K, 2000.3 kPa, Fluid (supercritical or subcritical phases)): 94.8889 ± 0.078 kg/m3 | mass density (353.16 K, 2200.5 kPa, Fluid (supercritical or subcritical phases)): 110.087 ± 0.093 kg/m3 | vapor or sublimation pressure (353.16 K, Liquid): 2633.6 ± 4.7 kPa and 2633.7 ± 4.7 kPa | mass density (353.16 K, Liquid): 928.313 ± 0.41 kg/m3 and 928.306 ± 0.41 kg/m3 | mass density (353.17 K, 1000.4 kPa, Fluid (supercritical or subcritical phases)): 39.3925 ± 0.052 kg/m3 | mass density (353.17 K, 1508.8 kPa, Fluid (supercritical or subcritical phases)): 64.532 ± 0.061 kg/m3 | mass density (353.17 K, 2408.1 kPa, Fluid (supercritical or subcritical phases)): 128.821 ± 0.11 kg/m3 | mass density (363.17 K, 153.67 kPa, Fluid (supercritical or subcritical phases)): 5.26494 ± 0.041 kg/m3 | mass density (363.17 K, 500.5 kPa, Fluid (supercritical or subcritical phases)): 17.8052 ± 0.044 kg/m3 | mass density (363.17 K, 1001.1 kPa, Fluid (supercritical or subcritical phases)): 37.7848 ± 0.048 kg/m3 | mass density (363.17 K, 3101.3 kPa, Fluid (supercritical or subcritical phases)): 188.758 ± 0.19 kg/m3 | vapor or sublimation pressure (363.17 K, Liquid): 3245.3 ± 5.6 kPa | mass density (363.17 K, Liquid): 837.765 ± 0.43 kg/m3 | mass density (363.18 K, 1500.8 kPa, Fluid (supercritical or subcritical phases)): 60.7126 ± 0.055 kg/m3 | mass density (363.18 K, 2003.2 kPa, Fluid (supercritical or subcritical phases)): 88.1709 ± 0.069 kg/m3 | mass density (363.18 K, 2500.4 kPa, Fluid (supercritical or subcritical phases)): 122.731 ± 0.095 kg/m3 | mass density (363.18 K, 2800.4 kPa, Fluid (supercritical or subcritical phases)): 150.158 ± 0.13 kg/m3 | mass density (363.18 K, 3002.1 kPa, Fluid (supercritical or subcritical phases)): 174.085 ± 0.16 kg/m3 | vapor or sublimation pressure (363.18 K, Liquid): 3245.5 ± 5.6 kPa | mass density (363.18 K, Liquid): 837.734 ± 0.43 kg/m3
